Measurements from patent US7759373B2, “Large conductance calcium-activated K channel opener” (Mitsubishi Tanabe Pharma Corporation, priority 2001, dated 2010).
pEC50: −log10 of the molar value.

Experiments:
[1] = system: isolated rabbit urinary bladder; experiment: Relaxation effect on potassium-induced contraction of isolated rabbit urinary bladder; assay type: cell-based; settings: Oryctolagus cuniculus; 50% relaxation concentration; high-K+ (30 mM) pre-contracted rabbit bladder strips; relaxation as percentage of the maximum produced by 0.1 mM papaverine; read-out: EC50 value range
Experimental: Relaxation effect on potassium-induced contraction of isolated rabbit urinary bladder
Urinary bladder was isolated from Male NZW rabbits (2.0-3.5 kg) and immersed in ice-cold Krebs-bicarbonate solution (in mM: 118 NaCl, 4.7 KCl, 1.2, 2.5 CaCl2, MgSO4, 1.2 KH2PO4, 11 glucose, 25 NaHCO3). The urinary bladder was cut into longitudinal strips (5 mm length, 3-4 mm width) after mucosal layer was removed. Preparations were mounted in organ baths containing 10 ml of Krebs solution maintained at 37° C. and gassed with 95% O2/5% CO2. Accordingly, preparations were stretched with an initial tension of 2.0±1.0 g, and changes in isometric tension were measured by force-displacement transducer. The preparations were pre-contracted by changing organ-bath solution into high-K^+ (30 mM) Krebs solution (in mM: 92.7 NaCl, 30 KCl, 1.2, 2.5 CaCl2, MgSO4, 1.2 KH2PO4, 11 glucose, 25 NaHCO3).
After stable tension was obtained, compounds were added into organ baths cumulatively (10^−8M-10^−4M). The effects of compounds were expressed as a percentage of the maximum relaxation produced by 0.1 mM papaverine. 50% relaxation concentration (EC50) was calculated and EC50 value range (μM) of the compounds of the present invention was shown in the following Table 64 with a rank of A, B or C. These ranges are as mentioned below. 3≧C≧1≧B≧0.5≧A

[2] = system: rhythmic bladder contractions induced by substance P; experiment: Inhibitory effect on the rhythmic bladder contractions induced by substance P in anesthetized rats; assay type: in vivo, rat; settings: time during which frequency of rhythmic contraction was completely inhibited, 0.25 mg/kg of the compound, substance P infusion
In short: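 Urethane-anesthetized female Sprague-Dawley rats with rhythmic bladder contractions driven by i.v. substance P (0.33 μg/kg/min). Compound given i.v. in saline/0.5% Tween 80 once contractions stable 15 min; intravesical pressure monitored, duration of 100% inhibition ranked A ≥20, B ≥10, C <10 min.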

SMILES | pEC50 [1] | 100% inhibition time range [2]
COc1ccc(-c2nc(CC(=O)O)c(-c3ccsc3)o2)cc1C [Preparation Example 438] | 5.52 to 6.00 | C (A≧20>B≧10>C (minute))
O=C(O)Cc1nc(-c2ccc3ccccc3n2)oc1-c1ccc(Cl)s1 [Preparation Example 434] | 6.00 to 6.30 | B (A≧20>B≧10>C (minute))
Cc1nc(-c2ccc(F)cc2)[nH]c1-c1ccsc1 [Preparation Example 168] | 6.00 to 6.30 | B (A≧20>B≧10>C (minute))
O=C(O)Cc1nc(-c2ccc(F)cc2)oc1-c1ccc(Cl)c(F)c1 [Preparation Example 253] | 6.00 to 6.30 | A (A≧20>B≧10>C (minute))
O=C(O)Cc1nc(-c2ccc(F)cc2)oc1-c1csc(Cl)c1 [Preparation Example 286] | ≥ 6.30 | C (A≧20>B≧10>C (minute))
Cc1cc(-c2nc(CC(=O)O)c(-c3ccc(Cl)s3)o2)on1 [Preparation Example 278] | 6.00 to 6.30 | B (A≧20>B≧10>C (minute))
CC(C)c1ccc(-c2nc(CC(=O)O)c(-c3ccc(Cl)s3)o2)cc1 [Preparation Example 273] | 5.52 to 6.00 | C (A≧20>B≧10>C (minute))
CS(=O)(=O)NCCc1nc(-c2ccc(F)cc2)oc1-c1ccsc1.[Na] [Preparation Example 378, 2-(4-fluoro-phenyl)-4-methanesulfonylaminoethyl-5-(3-thienyl)oxazole sodium salt] | 5.52 to 6.00 | C (A≧20>B≧10>C (minute))
Cl.N#CCCc1[nH]c(-c2ccc(F)cc2)nc1-c1ccccc1O [Preparation Example 350, 5-(2-cyanoethyl)-2-(4-fluorophenyl)-4-(2-hydroxyphenyl)-imidazole hydrochloride] | 5.52 to 6.00 | B (A≧20>B≧10>C (minute))
CCCc1nc(-c2ccc(F)cc2)[nH]c1-c1ccsc1 [Preparation Example 172] | 5.52 to 6.00 | C (A≧20>B≧10>C (minute))
O=C(O)Cc1nc(-c2ccc(F)cc2)oc1-c1ccc(Cl)cc1 [Preparation Example 243] | ≥ 6.30 | A (A≧20>B≧10>C (minute))
O=C(O)Cc1nc(-c2ccc(Cl)cc2)oc1-c1ccc(Cl)s1 [Preparation Example 275] | ≥ 6.30 | A (A≧20>B≧10>C (minute))
O=C(O)Cc1nc(-c2ccc(F)cc2)oc1-c1ccc(C(F)(F)F)cc1 [Preparation Example 244] | 5.52 to 6.00 | B (A≧20>B≧10>C (minute))
Cn1c(-c2oc(-c3ccc(F)cc3)nc2CC(=O)O)cc2ccccc21 [Preparation Example 249] | 5.52 to 6.00 | B (A≧20>B≧10>C (minute))
CONC(=O)Cc1nc(-c2ccc(F)cc2)oc1-c1ccsc1 [Preparation Example 373, N-methoxy-[2-(4-fluorophenyl)-5-(3-thienyl)oxazol-4-yl]acetamide] | 5.52 to 6.00 | C (A≧20>B≧10>C (minute))
O=C(O)Cc1nc(-c2cc3ccccc3o2)oc1-c1ccc(Cl)s1 [Preparation Example 435] | 6.00 to 6.30 | B (A≧20>B≧10>C (minute))
C[S+]([O-])Cc1nc(-c2ccc(F)cc2)[nH]c1-c1ccsc1 (centres unmarked) [Preparation Example 181] | 6.00 to 6.30 | B (A≧20>B≧10>C (minute))
CCc1nc(-c2ccc(F)cc2)[nH]c1-c1ccsc1 [Preparation Example 171] | 5.52 to 6.00 | B (A≧20>B≧10>C (minute))
COc1ccc(-c2nc(CC(=O)O)c(-c3ccccc3F)o2)cc1 [Preparation Example 247] | 5.52 to 6.00 | C (A≧20>B≧10>C (minute))
CNC(=O)Cc1nc(-c2ccc(F)cc2)oc1-c1ccsc1 [Preparation Example 374] | 5.52 to 6.00 | C (A≧20>B≧10>C (minute))
O=C(O)Cc1nc(-c2ccc(F)cc2)oc1-c1ccc(Cl)c(Cl)c1 [Preparation Example 240] | 6.00 to 6.30 | C (A≧20>B≧10>C (minute))
O=C(O)Cc1nc(-c2ccc(F)cc2)oc1-c1ccsc1 [Preparation Example 197] | 5.52 to 6.00 | C (A≧20>B≧10>C (minute))
CCN(C)c1ncc(-c2nc(CC(=O)O)c(-c3ccc(Cl)s3)o2)cn1 [Preparation Example 363] | 5.52 to 6.00 | C (A≧20>B≧10>C (minute))
COc1ccc(-c2nc(CC(=O)O)c(-c3ccc(F)c(F)c3)o2)cc1 [Preparation Example 246] | 6.00 to 6.30 | B (A≧20>B≧10>C (minute))
O=C(O)Cc1nc(-c2cc3ccccc3s2)oc1-c1ccc(Cl)s1 [Preparation Example 271] | 6.00 to 6.30 | C (A≧20>B≧10>C (minute))
O=C(O)Cc1nc(-c2ccc3ncccc3c2)oc1-c1ccc(Cl)s1 [Preparation Example 284] | 5.52 to 6.00 | B (A≧20>B≧10>C (minute))
O=C(O)Cc1nc(-c2ccc3occc3c2)oc1-c1ccc(Cl)s1 [Preparation Example 272] | ≥ 6.30 | B (A≧20>B≧10>C (minute))

Second part, led by results:

pEC50 [1] | SMILES | 100% inhibition time range [2]
≥ 6.30 | Cc1ccc(-c2nc(CC(=O)O)c(-c3ccc(Cl)s3)o2)s1 [Preparation Example 458] | B (A≧20>B≧10>C (minute))
5.52 to 6.00 | CCc1nc(-c2ccc(Cl)s2)[nH]c1-c1cccnc1 [Preparation example 14] | A (A≧20>B≧10>C (minute))
6.00 to 6.30 | CCc1nc(-c2ccc(Cl)cc2)[nH]c1-c1cccnc1 [Preparation example 56] | B (A≧20>B≧10>C (minute))
≥ 6.30 | O=C(O)Cc1oc(-c2ccc(F)cc2)nc1-c1ccc(Cl)cc1 [Preparation Example 511] | C (A≧20>B≧10>C (minute))
5.52 to 6.00 | CN(C)c1ccc(-c2nc(-c3ccsc3)c(CC(=O)O)s2)cn1 [Preparation Example 596] | B (A≧20>B≧10>C (minute))
6.00 to 6.30 | Cc1cc(-c2nc(-c3ccc(Cl)s3)c(CC(=O)O)s2)sc1C [Preparation Example 587] | A (A≧20>B≧10>C (minute))
6.00 to 6.30 | CSc1ncc(-c2nc(CC(=O)O)c(-c3ccc(Cl)c(F)c3)o2)cn1 [Preparation Example 462] | C (A≧20>B≧10>C (minute))
5.52 to 6.00 | CN(c1ccc(-c2nc(CC(=O)O)c(-c3ccc(Cl)s3)o2)cn1)C1CC1 [Preparation Example 531] | C (A≧20>B≧10>C (minute))
≥ 6.30 | CN(C)c1ncc(-c2nc(-c3ccc(Cl)s3)c(CC(=O)O)s2)cn1 [Preparation Example 600] | A (A≧20>B≧10>C (minute))
6.00 to 6.30 | C[S+]([O-])Cc1nc(-c2cccc(F)c2)[nH]c1-c1ccccc1 (centres unmarked) [Preparation example 136] | C (A≧20>B≧10>C (minute))
5.52 to 6.00 | O=C(O)Cc1nc(-c2cnc3occc3c2)oc1-c1ccc(Cl)s1 [Preparation Example 444] | B (A≧20>B≧10>C (minute))
5.52 to 6.00 | CCCc1nc(-c2ccc(F)cc2)[nH]c1-c1ccc(F)cc1 [Preparation example 87] | B (A≧20>B≧10>C (minute))
6.00 to 6.30 | CN(C)c1ncc(-c2nc(CC(=O)O)c(-c3ccc(Cl)cc3)o2)cn1 [Preparation Example 473] | A (A≧20>B≧10>C (minute))
5.52 to 6.00 | COCc1ccc(-c2nc(CC(=O)O)c(-c3ccc(Cl)s3)o2)cn1 [Preparation Example 464] | C (A≧20>B≧10>C (minute))
5.52 to 6.00 | CSc1ncc(-c2nc(-c3ccc(Cl)s3)c(CC(=O)O)s2)cn1 [Preparation Example 572] | C (A≧20>B≧10>C (minute))
6.00 to 6.30 | COc1ccc(-c2nc(-c3cccs3)c(CC(=O)O)s2)cc1 [Preparation Example 578] | B (A≧20>B≧10>C (minute))
≥ 6.30 | CCOc1ccc(-c2nc(-c3ccc(Cl)s3)c(CC(=O)O)s2)cn1 [Preparation Example 586] | B (A≧20>B≧10>C (minute))
5.52 to 6.00 | CN(C)c1[nH]c(-c2ccc(F)cc2)nc1-c1ccccc1.Cl [Preparation example 108, 5-dimethylamino-2-(4-fluorophenyl)-4-phenylimidazole hydrochloride] | B (A≧20>B≧10>C (minute))
5.52 to 6.00 | CSc1ccc(-c2nc(CC(=O)O)c(-c3ccc(Cl)cc3)o2)cc1 [Preparation Example 455] | B (A≧20>B≧10>C (minute))
